These results are taken from patent US10004701B2, “Methods and compositions for treating infection” (UNIVERSITY OF ROCHESTER, priority 2012, dated 2018).

What all share (test): AK assay 384-well format, Prestwick library screening
Test [1] relates to E. coli. Format: cell-based, Escherichia coli. To be noted: 50 μM final drug concentration; for fold induction at 50 µM: Escherichia coli, 3 h.
In test [2] the test system is E. faecium. Format: cell-based, Enterococcus faecium. To be noted: 50 μM final drug concentration; for fold induction at 50 µM: Enterococcus faecium, 3 h.
Test [3] deals with P. aeruginosa. Format: cell-based, Pseudomonas aeruginosa. The conditions noted are these: 50 μM final drug concentration; for fold induction at 50 µM: Pseudomonas aeruginosa, 3 h.
For test [4], the system named is A. baumannii strain 98-37-09. Format: cell-based, Acinetobacter baumannii. The conditions noted are these: 50 μM final drug concentration; for fold induction at 50 µM: Acinetobacter baumannii, 983709, 3 h.
In test [5] the test system is S. aureus strain USA300-0114. Format: cell-based, Staphylococcus aureus. To be noted: 50 μM final drug concentration; for fold induction at 50 µM: Staphylococcus aureus, USA300, 3 h.
The subject of test [6] is K. pneumoniae. Format: cell-based, Klebsiella pneumoniae. The conditions noted are these: 50 μM final drug concentration; for fold induction at 50 µM: Klebsiella pneumoniae, 3 h.
Test [7] concerns E. cloacae. Format: cell-based, Enterobacter cloacae. To be noted: 50 μM final drug concentration; for fold induction at 50 µM: Enterobacter cloacae, 3 h.

Counter-ions that a name gives are not always drawn. Like-named read-outs stand apart in the source and are kept apart here.

Turning to `CC1(C)[C@@H](OC(=O)CCC(=O)O)CC[C@]2(C)[C@H]3C(=O)C=C4[C@@H]5C[C@@](C)(C(=O)O)CC[C@]5(C)CC[C@@]4(C)[C@]3(C)CC[C@@H]12` [Carbenoxolone disodium salt], the fold induction at 50 µM in test [1] (planktonic, cutoff for positive-scoring molecules 3-fold increase, read-out: AK-based Prestwick Library Screening Results, E. coli (fold increase in extracellular AK activity)) is 0.8; in test [2] (planktonic, cutoff for positive-scoring molecules 3-fold increase, read-out: AK-based Prestwick Library Screening Results, E. faecium (fold increase in extracellular AK activity)), 0.9; in test [3] (planktonic, cutoff for positive-scoring molecules 3-fold increase, read-out: AK-based Prestwick Library Screening Results, P. aeruginosa (fold increase in extracellular AK activity)) it was 0.9; in test [4] (planktonic, cutoff for positive-scoring molecules 3-fold increase, read-out: AK-based Prestwick Library Screening Results, A. baumannii (fold increase in extracellular AK activity)) it was 1.1; in test [5] (planktonic, cutoff for positive-scoring molecules 3-fold increase, read-out: AK-based Prestwick Library Screening Results, S. aureus (fold increase in extracellular AK activity)), 1.6; in test [6] (planktonic, cutoff for positive-scoring molecules 3-fold increase, read-out: AK-based Prestwick Library Screening Results, K. pneumoniae (fold increase in extracellular AK activity)) it was 0.7. For the same compound, in test [7] (planktonic, cutoff for positive-scoring molecules 3-fold increase, read-out: AK-based Prestwick Library Screening Results, E. cloacae (fold increase in extracellular AK activity)), the fold induction at 50 µM was determined as 1.4.

Regarding `CC1=CC(=O)C2=C(C)C[C@H](O)[C@@H]3[C@H](OC(=O)[C@H]3C)[C@H]12` [Austricine hydrate], the fold induction at 50 µM in test [1] (planktonic, […], read-out: AK-based Prestwick Library Screening Results, E. coli (fold increase in extracellular AK activity)) turned out to be 1.2; in test [2] (planktonic, […], read-out: AK-based Prestwick Library Screening Results, E. faecium (fold increase in extracellular AK activity)) it was 1.1; in test [3] (planktonic, […], read-out: AK-based Prestwick Library Screening Results, P. aeruginosa (fold increase in extracellular AK activity)) it was 1.1; in test [4] (planktonic, […], read-out: AK-based Prestwick Library Screening Results, A. baumannii (fold increase in extracellular AK activity)) it was 1; in test [5] (planktonic, […], read-out: AK-based Prestwick Library Screening Results, S. aureus (fold increase in extracellular AK activity)) it was 1.2; in test [6] (planktonic, […], read-out: AK-based Prestwick Library Screening Results, K. pneumoniae (fold increase in extracellular AK activity)), 1. For the same compound, the fold induction at 50 µM in test [7] (planktonic, […], read-out: AK-based Prestwick Library Screening Results, E. cloacae (fold increase in extracellular AK activity)) is 1.3.

`CCNCC(O)c1cccc(O)c1` (stereo not shown) [Etilefrine hydrochloride]: the fold induction at 50 µM was 1 in test [1] (planktonic E. coli, positive cutoff 3-fold increase, read-out: AK-based Prestwick library screening result, E. coli (fold increase in extracellular AK activity)); 1 in test [2] (planktonic E. faecium, positive cutoff 3-fold increase, read-out: AK-based Prestwick library screening result, E. faecium (fold increase in extracellular AK activity)); 1.1 in test [3] (planktonic P. aeruginosa, positive cutoff 3-fold increase, read-out: AK-based Prestwick library screening result, P. aeruginosa (fold increase in extracellular AK activity)); 1.4 in test [4] (planktonic A. baumannii, positive cutoff 3-fold increase, read-out: AK-based Prestwick library screening result, A. baumannii (fold increase in extracellular AK activity)); 1.1 in test [5] (planktonic S. aureus, positive cutoff 3-fold increase, read-out: AK-based Prestwick library screening result, S. aureus (fold increase in extracellular AK activity)); 0.8 in test [6] (planktonic K. pneumoniae, positive cutoff 3-fold increase, read-out: AK-based Prestwick library screening result, K. pneumoniae (fold increase in extracellular AK activity)). In addition, the fold induction at 50 µM in test [7] (planktonic E. cloacae, positive cutoff 3-fold increase, read-out: AK-based Prestwick library screening result, E. cloacae (fold increase in extracellular AK activity)) came out at 1.5.

In the case of `CC[C@H](C)[C@H]1O[C@]2(CC[C@@H]1C)C[C@@H]1C[C@@H](C/C=C(\C)[C@@H](O[C@H]3C[C@H](OC)[C@@H](O[C@H]4C[C@H](OC)[C@@H](O)[C@H](C)O4)[C@H](C)O3)[C@@H](C)/C=C/C=C3\CO[C@@H]4[C@H](O)C(C)=C[C@@H](C(=O)O1)[C@]34O)O2` [Ivermectin], the “AK-based Prestwick Library Screening Results: E. coli (increase in extracellular AK activity)” value in test [1] (planktonic E. coli, 384-well, […]) is on record as 1.3. Moreover, the “AK-based Prestwick Library Screening Results: E. faecium (increase in extracellular AK activity)” value in test [2] (planktonic E. faecium, 384-well, […]) came out at 1.2. Also, the “AK-based Prestwick Library Screening Results: P. aeruginosa (increase in extracellular AK activity)” value in test [3] (planktonic P. aeruginosa, 384-well, […]) is given as 1.0. Also, the “AK-based Prestwick Library Screening Results: A. baumannii (increase in extracellular AK activity)” value in test [4] (planktonic A. baumannii, 384-well, […]) amounted to 1.5. For the same compound, the “AK-based Prestwick Library Screening Results: S. aureus (increase in extracellular AK activity)” value in test [5] (planktonic S. aureus, 384-well, […]) turned out to be 2.1. Besides, the “AK-based Prestwick Library Screening Results: K. pneumoniae (increase in extracellular AK activity)” value in test [6] (planktonic K. pneumoniae, 384-well, […]) came to 1.0. The “AK-based Prestwick Library Screening Results: E. cloacae (increase in extracellular AK activity)” value in test [7] (planktonic E. cloacae, 384-well, […]) stood at 1.6.

`NCCc1c[nH]c2ccc(O)cc12` [Serotonin hydrochloride]: the fold induction at 50 µM in test [1] (planktonic E. coli, 384-well, cutoff for positive-scoring molecules 3-fold increase, read-out: AK-based Prestwick Library Screening Results: E. coli (increase in extracellular AK activity)) turned out to be 0.8; in test [2] (planktonic E. faecium, 384-well, […], read-out: AK-based Prestwick Library Screening Results: E. faecium (increase in extracellular AK activity)), 0.9; in test [3] (planktonic P. aeruginosa, 384-well, […], read-out: AK-based Prestwick Library Screening Results: P. aeruginosa (increase in extracellular AK activity)), 0.6; in test [4] (planktonic A. baumannii, 384-well, […], read-out: AK-based Prestwick Library Screening Results: A. baumannii (increase in extracellular AK activity)) it was 0.6; in test [5] (planktonic S. aureus, 384-well, […], read-out: AK-based Prestwick Library Screening Results: S. aureus (increase in extracellular AK activity)) it was 0.6; in test [6] (planktonic K. pneumoniae, 384-well, […], read-out: AK-based Prestwick Library Screening Results: K. pneumoniae (increase in extracellular AK activity)), 0.6. In addition, the fold induction at 50 µM in test [7] (planktonic E. cloacae, 384-well, […], read-out: AK-based Prestwick Library Screening Results: E. cloacae (increase in extracellular AK activity)) was found to be 0.6.

`O=C1CCC(N2C(=O)c3ccccc3C2=O)C(=O)N1` (stereo not shown) [Thalidomide]: the fold induction at 50 µM in test [1] (384-well format, cutoff for positive-scoring molecules 3-fold increase, read-out: AK-based Prestwick Library Screening Results, E. coli (increase in extracellular AK activity)) was determined as 1; in test [2] (384-well format, cutoff for positive-scoring molecules 3-fold increase, read-out: AK-based Prestwick Library Screening Results, E. faecium (increase in extracellular AK activity)), 1; in test [3] (384-well format, cutoff for positive-scoring molecules 3-fold increase, read-out: AK-based Prestwick Library Screening Results, P. aeruginosa (increase in extracellular AK activity)) it was 0.9; in test [4] (384-well format, cutoff for positive-scoring molecules 3-fold increase, read-out: AK-based Prestwick Library Screening Results, A. baumannii (increase in extracellular AK activity)), 0.9; in test [5] (384-well format, cutoff for positive-scoring molecules 3-fold increase, read-out: AK-based Prestwick Library Screening Results, S. aureus (increase in extracellular AK activity)) it was 1; in test [6] (384-well format, cutoff for positive-scoring molecules 3-fold increase, read-out: AK-based Prestwick Library Screening Results, K. pneumoniae (increase in extracellular AK activity)) it was 0.8. For the same compound, the fold induction at 50 µM in test [7] (384-well format, cutoff for positive-scoring molecules 3-fold increase, read-out: AK-based Prestwick Library Screening Results, E. cloacae (increase in extracellular AK activity)) turned out to be 1.1.

With `O=C(O)CN(CCN(CC(=O)O)CC(=O)O)CCN(CC(=O)O)CC(=O)O` [Pentetic acid], the fold induction at 50 µM in test [1] (cutoff for positive-scoring molecules 3-fold increase, read-out: AK-based Prestwick Library Screening Results, E. coli (fold increase in extracellular AK activity)) came out at 1.3; in test [2] (cutoff for positive-scoring molecules 3-fold increase, read-out: AK-based Prestwick Library Screening Results, E. faecium (fold increase in extracellular AK activity)), 1; in test [3] (cutoff for positive-scoring molecules 3-fold increase, read-out: AK-based Prestwick Library Screening Results, P. aeruginosa (fold increase in extracellular AK activity)), 1.2; in test [4] (cutoff for positive-scoring molecules 3-fold increase, read-out: AK-based Prestwick Library Screening Results, A. baumannii (fold increase in extracellular AK activity)), 1.3; in test [5] (cutoff for positive-scoring molecules 3-fold increase, read-out: AK-based Prestwick Library Screening Results, S. aureus (fold increase in extracellular AK activity)), 1.4; in test [6] (cutoff for positive-scoring molecules 3-fold increase, read-out: AK-based Prestwick Library Screening Results, K. pneumoniae (fold increase in extracellular AK activity)), 1.1. Besides, in test [7] (cutoff for positive-scoring molecules 3-fold increase, read-out: AK-based Prestwick Library Screening Results, E. cloacae (fold increase in extracellular AK activity)), the fold induction at 50 µM was 1.5.
